{"source": "patent US12661396B2", "about": "“Selective targeting of the TREML1/MD2 interaction by small peptide or protein and its use for vaccine adjuvants” (Ascendo Biotechnology, Inc., priority 2020, dated 2026)", "key": {"mMD2": {"target": "T1, mMD2 (Mus musculus, UniProt Q9JHF9)", "T1 sequence (Q9JHF9 19-160)": "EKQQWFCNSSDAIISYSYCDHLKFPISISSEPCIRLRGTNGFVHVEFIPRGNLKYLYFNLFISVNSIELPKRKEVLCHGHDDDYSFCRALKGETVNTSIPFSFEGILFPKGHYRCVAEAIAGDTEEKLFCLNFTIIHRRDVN", "assay": "Solid phase binding assay, mMD2 to immobilized mTREML1 stalk", "settings": "stalk coated 5 ug/ml; FIG. 3B", "description": "For TREML1 or mTREML1 stalk binding to human or mouse MD2 protein, TREML1 stalk or mTREML1 stalk (5 ug/ml in PBS) was coated separately on a 96-well plate. Recombinant hTLR4, hMD2, hCD14, or mMD2 was each serially diluted and added to the plates. Anti-His tag antibody-HRP was used as a detection antibody to detect the protein binding."}, "CT26 colon cancer cells": {"system": "CT26 colon cancer cells", "assay": "CT26 colon carcinoma model, tumor vaccine with adjuvant", "format": "in vivo, BALB/c mice", "settings": "combined with tumor antigen 5E-GP70-15/aluminum mixture, s.c. on days 6 and 13; FIG. 9B", "description": "To test TREML1 ECD or its stalk as a vaccine adjuvant or immune booster, we use a CT26 colon carcinoma animal model. […] Briefly, CT26 colon cancer cells (3×10^5 cells) were injected subcutaneously into BALB/c mice on day 0. When the tumor grows to 30-100 mm^3 on day 6, tumor vaccines (tumor antigen 5E-GP70-15/aluminum mixture with or without mouse TREML1 stalk; 100 μL/mouse each time) were injected subcutaneously. The vaccinations were repeated on days 13. Tumor volumes were measured every 3-4 days. […] A DNA vaccine containing the gp70 gene has been used to induce protective immunity against CT26 cells. (J. Takeda et al., “Anti-tumor immunity against CT26 colon tumor in mice immunized with plasmid DNA encoding beta-galactosidase fused to an envelope protein of endogenous retrovirus,” Cell Immunol., (2000), 204(1): 11-18).\nFor the establishment of syngeneic murine colon cancer models, BALB/c mice were subcutaneously injected in the back with 3×10^5 CT26 cells per mouse. When the volume of the inoculated tumor reached 30-100 mm^3, mice were randomly divided into cohorts for different treatments. […] During each animal study, tumor dimensions were monitored with caliper measurements, and the tumor volumes were calculated using the equation: […], wherein length is the longest diameter of the tumor and the width is the shortest diameter. […]"}, "BMDCs": {"system": "BMDCs", "assay": "Mouse bone marrow derived dendritic cell maturation (flow cytometry)", "format": "cell-based", "settings": "FIG. 8", "description": "Femurs and tibiae were harvested from female C57BL/6 mice and extra muscle tissues were removed. Bones were disinfected in 70% ethanol, then rinsed with RPMI-1640 medium, and both ends were cut to flush out the bone marrow with RPMI-1640 medium using 26 G needle syringes. To disperse cell clumps, bone marrow suspension was pipetted in-and-out several times and washed twice with RPMI-1640 medium by centrifugation. […] At day 0, after cell counting, the leukocytes were seeded at a concentration of 2×10^6 cells/10 ml R10 medium containing 200 U/ml rmGM-CSF in sterile […] Petri dish and incubated at 37° C. with 5% CO2. At day 3, another 10 ml of R10 medium containing 200 U/ml rmGM-CSF was added. At days 6, one half of the supernatant was taken out and centrifuged to collect cell pellet, which was resuspend in original plate with 10 ml of R10 medium containing 200 U/ml GM-CSF. At day 8, non-adherent cells were collected by gentle pipetting and centrifuged at 300 g for 5 min. To obtain purer dendritic cells, the population of macrophages (F4/80^high) was removed with Anti-F4/80 MicroBeads UltraPure (130-110-443, Miltenyi Biotec, Bergisch Gladbach, Germany) following the manufacturer's instructions. Briefly, cell pellet was resuspended and mixed well in MACS buffer with Anti-F4/80 MicroBeads UltraPure. This mixture was incubated for 15 min in the dark in 4° C. After washing cells with MACS buffer, cells were resuspended in MACS buffer, filtered with 30 μm nylon mesh, and added to the MACS buffer rinsed column to separate F4/80^+ cells. Unlabeled cells were collected and washed with R10 medium. To freeze the cells, cell pellet was counted and resuspended at a concentration 1×10^7 cell in 2 ml CELLBANKER2 (#11891, ZENOAQ) per cryopreservation vial and stored at −80 degree Celsius.\nBMDCs were thawed for the DC maturation experiments. These cells were seeded at 1×10^6 cells/2 ml in R10 medium containing 200 U/ml rmGM-CSF in wells of a 6-well tissue culture dish and cultured to recover the cell viability at 37° C. with 5% CO2. After 6 hr, BMDCs were treated with various fragments of mTREML1 protein and cultured in 37° C. with 5% CO2. On the next day, resuspended cells were collected and analyzed by flow cytometry.\nCells were centrifuged at 1800 rpm for 3 min in PBS containing 1% FBS and 0.1% sodium azide (PBSBA), and then divided at a concentration of 1×10^5 cells/100 ul PBSBA in flow tube. Before staining the surface marker of DC, cells were treated with mouse Fc blocker to avoid antibody non-specific binding at room temperature for 30 min. […] After PBSBA washing, samples were analyzed using the CytoFlex flow cytometer with the CytExpert software."}}}
{"substance": "mTREML1 stalk: mouse TREML1 stalk polypeptide, SEQ ID NO:4, EGEEAEDEKETYRIGTGSLLEDPSLDPSASAGPHEFRRRENSIP, chemically synthesized (listed as Mus musculus)", "values": [{"measurement": "mouse MD2 binding to immobilized mTREML1 stalk", "setting": "mMD2", "result": "can bind to the immobilized TREML1 stalk and mTREML1 stalk"}, {"measurement": "tumor volume, vaccine with mTREML1 stalk as adjuvant", "setting": "CT26 colon cancer cells", "result": "dramatic reduction in the tumor volumes"}, {"measurement": "dendritic cell maturation effect compared with TNF-α", "setting": "BMDCs", "result": "significantly stronger than those of TNF-α"}, {"measurement": "dendritic cell maturation (DC maturation markers CD40, CD86, CD80, MHC II)", "setting": "BMDCs; analyzed the next day", "result": "can trigger dendritic cell maturation"}]}
